We go through seven compounds from ChEMBL document CHEMBL3797153, “Discovery of acyl guanidine tryptophan hydroxylase-1 inhibitors” (Bioorg Med Chem Lett, 2016).

Each structure is given as a SMILES string. Converted amounts (≈) assume the structure as drawn.

Data set [1] can be described thus: Kinetic aqueous solubility in pH 7.4 50 mM phosphate buffer. The class given is physicochemical. Conditions: read-out: Kinetic_solubility.
Data set [2] is described as follows: Protein binding in rat plasma by equilibrium dialysis. The class given is ADME, cell-free. Conditions: read-out: PPB (converted). Background: In equilibrium dialysis free small molecules cross a membrane that holds back macromolecules.
In another data set the test system is Mus musculus. Put plainly: In-vivo inhibition of TPH1 in mouse assessed as 5-HT level in intestinal mucosa at 150 mg/kg, po administered as single dose relative to control. The class given is functional. Set-up: scale not given: the % may be the effect or the level left.

For `COc1cccc(Oc2cccc(N3CCCCC3)c2CN/C(N)=N/C(=O)c2ccc(C[C@H](N)C(=O)O)cc2)c1`, the solubility kinetic in data set [1] is over 40 µM. The fraction unbound in data set [2] is 0.12.

For the compound `CCOC(=O)[C@@H](N)Cc1ccc(C(=O)/N=C(\N)NCc2c(Oc3ccccc3)cccc2N2CCCCC2)cc1`, the Activity in the data set with Mus musculus turned out to be 62%.

As to `N/C(=N\C(=O)c1ccc(C[C@H](N)C(=O)O)cc1)NCc1cc(-c2ccccc2)ccc1N1CCCCC1`, in data set [1], the solubility kinetic amounted to 16 µM (≈ 7.99 µg/mL).

For `Cc1cccc(N2CCCCCC2)c1CN/C(N)=N/C(=O)c1ccc(C[C@H](N)C(=O)O)cc1`, the solubility kinetic in data set [1] is 40 µM (≈ 18.1 µg/mL). In addition, the Activity in the data set on Mus musculus was 72%.

On to `N/C(=N\C(=O)c1ccc(C[C@H](N)C(=O)O)cc1)NCc1c(Oc2ccccc2)cccc1N1CCCCC1`, for which the Activity in the data set with Mus musculus stood at 80%.

With `CCOC(=O)[C@@H](N)Cc1ccc(C(=O)/N=C(\N)NCc2c(C)cccc2N2CCCCCC2)cc1`, in the data set with Mus musculus, the Activity is given as 62%.

In the case of `Nc1nc(OC(c2ccc(-c3cccc(F)c3)cc2)C(F)(F)F)cc(-c2ccc(C[C@H](N)C(=O)O)cc2)n1` (stereo not given in full), in data set [1], the solubility kinetic came to 2.1 µM (≈ 1.11 µg/mL). Further, in data set [2], the fraction unbound was under 0.001.
